The target in the assay is T1, hTSHR (Homo sapiens, UniProt P16473).
T1 construct: expressed in transfected cells
Description: hTSHR TR-FRET cAMP Assay (inhibition of M22-stimulated cAMP production). In kind it is cell-based. The essentials: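 Readout was a cAMP HTRF ratio of 655/620 nm after lysis, scaled between the EC80 M22 signal (0% inhibition) and no-agonist vehicle (100%). Frozen induced Expi293F-hTSHR cells saw test compounds (0.5% DMSO) for 15 min at 37 °C before 30 min of M22 stimulation at EC80.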
In general terms: Time-resolved FRET reads energy transfer from a long-lived donor to a nearby acceptor.

Where [1] appears, read: Expi293F Inducible cells stably expressing hTSHR, cAMP HTRF, stimulated with EC80 of anti-TSHR antibody M22, 15 min compound preincubation, 30 min at 37° C., read-out: Activity (IC50 bins).

pIC50: −log10 of the molar value. Where two headings read alike, the source gives them in different places. Bounds are passed on as bounds.

T1 sequence (P16473 21-764): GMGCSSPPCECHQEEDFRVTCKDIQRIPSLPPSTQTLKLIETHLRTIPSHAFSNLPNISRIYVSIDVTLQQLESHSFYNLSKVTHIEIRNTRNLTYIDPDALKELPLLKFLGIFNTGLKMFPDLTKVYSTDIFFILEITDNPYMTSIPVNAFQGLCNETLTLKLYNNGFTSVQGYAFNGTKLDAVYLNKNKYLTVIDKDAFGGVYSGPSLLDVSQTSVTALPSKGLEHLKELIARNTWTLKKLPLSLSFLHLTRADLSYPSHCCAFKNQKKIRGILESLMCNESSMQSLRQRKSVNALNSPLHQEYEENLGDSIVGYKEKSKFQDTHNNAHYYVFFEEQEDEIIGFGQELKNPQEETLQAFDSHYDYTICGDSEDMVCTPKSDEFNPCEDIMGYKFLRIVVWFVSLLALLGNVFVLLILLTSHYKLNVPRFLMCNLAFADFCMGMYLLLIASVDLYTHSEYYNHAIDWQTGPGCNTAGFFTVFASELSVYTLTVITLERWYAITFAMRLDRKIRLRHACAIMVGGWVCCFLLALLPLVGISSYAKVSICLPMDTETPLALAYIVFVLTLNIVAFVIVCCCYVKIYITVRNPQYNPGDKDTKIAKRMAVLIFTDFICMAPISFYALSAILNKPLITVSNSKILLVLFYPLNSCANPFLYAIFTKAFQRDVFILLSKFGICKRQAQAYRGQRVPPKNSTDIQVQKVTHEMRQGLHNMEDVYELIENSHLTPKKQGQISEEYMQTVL

With `CC(C)(C)NC(=O)Nc1ccc2c(c1)ncc(=O)n2Cc1cccc(Cl)c1` [Example 89, 1-(tert-butyl)-3-(1-(3-chlorobenzyl)-2-oxo-1,2-dihydroquinoxalin-6-yl)urea], the negative logarithm of the IC50 (pIC50) under setting [1] was 6.00 to 7.00.
Same read-out and setting: with `CC(C)(C)NC(=O)Nc1ccc2c(c1)ncc(=O)n2Cc1cccc(C(F)(F)F)c1` [Example 90, 1-(tert-butyl)-3-(2-oxo-1-(3-(trifluoro-methyl)benzyl)-1,2-di-hydro-quinoxalin-6-yl)urea] the figure was 6.00 to 7.00; with `CC(C)(C)NC(=O)Nc1ccc2c(c1)ncc(=O)n2Cc1cccc(OC(F)(F)F)c1` [Example 91, 1-(tert-butyl)-3-(2-oxo-1-(3-(trifluoro-methoxy)benzyl)-1,2-di-hydro-quinoxalin-6-yl)urea], 6.00 to 7.00; with `CC(C)(C)NC(=O)Nc1ccc2c(c1)ncc(=O)n2Cc1cccc(CCC(F)(F)F)c1` [Example 92, 1-(tert-butyl)-3-(2-oxo-1-(3-(3,3,3-trifluoro-propyl)benzyl)-1,2-dihydro-quinoxalin-6-yl)urea], 6.00 to 7.00.
Still for that read-out and setting: to `CC(C)(C)NC(=O)Nc1ccc2c(c1)ncc(=O)n2Cc1cccc(CCCC(F)(F)F)c1` [Example 93, 1-(tert-butyl)-3-(2-oxo-1-(3-(4,4,4-trifluoro-butyl)benzyl)-1,2-dihydro-quinoxalin-6-yl)urea] belongs greater than 7.00.
Same read-out and setting: to `CC(C)(C)NC(=O)Nc1ccc2c(c1)ncc(=O)n2Cc1cccc(CC(F)(F)F)c1` [Example 94, 1-(tert-butyl)-3-(2-oxo-1-(3-(2,2,2-trifluoro-ethyl)benzyl)-1,2-dihydro-quinoxalin-6-yl)urea] belongs 6.00 to 7.00; to `CC(C)(C)NC(=O)Nc1ccc2c(c1)ncc(=O)n2Cc1cccc(CCCC(F)(F)F)n1` [Example 95, 1-(tert-butyl)-3-(2-oxo-1-((6-(4,4,4-trifluoro-butyl)pyri-din-2-yl)methyl)-1,2-dihydro-quinoxalin-6-yl)urea], 6.00 to 7.00; to `CC(C)(C)NC(=O)Nc1ccc2c(c1)ncc(=O)n2Cc1cccc2c1OCCC2` [Example 96, 1-(tert-buty1)-3-(1-(chroman-8-ylmethyl)-2-oxo-1,2-dihydro-quinoxalin-6-yl)urea], 6.00 to 7.00.
On to `CC(C)(C)NC(=O)Nc1ccc2c(c1)ncc(=O)n2Cc1cccc2c1CCCO2` [Example 97, 1-(tert-butyl)-3-(1-(chroman-5-ylmethyl)-2-oxo-1,2-di-hydro-quinoxalin-6-yl)urea], for which the negative-log IC50 (pIC50) under setting [1] is 6.00 to 7.00.
The same measure, in the same setting: to `C[C@@H](c1ccccc1)n1c(=O)cnc2cc(NC(=O)NC(C)(C)C)ccc21` [Example 98, (S)-1-(tert-butyl)-3-(2-oxo-1-(1-phenylethyl)-1,2-dihydroquinoxalin-6-yl)urea] belongs 6.00 to 7.00; to `C[C@@H](c1cccc(C(F)(F)F)c1)n1c(=O)cnc2cc(NC(=O)NC(C)(C)C)ccc21` [Example 99, (S)-1-(tert-butyl)-3-(2-oxo-1-(1-(3-(trifluoromethyl)phenyl)ethyl)-1,2-dihydroquinoxalin-6-yl)urea], 6.00 to 7.00; to `C[C@@H](c1cccc(OC(F)(F)F)c1)n1c(=O)cnc2cc(NC(=O)NC(C)(C)C)ccc21` [Example 100, (S)-1-(tert-butyl)-3-(2-oxo-1-(1-(3-(trifluoromethoxy)phe-nyl)ethyl)-1,2-dihydroquinoxalin-6-yl)urea], greater than 7.00.
Same read-out and setting: to `C[C@@H](c1cc(Cl)cc(Cl)c1)n1c(=O)cnc2cc(NC(=O)NC(C)(C)C)ccc21` [Example 101, (S)-1-(tert-butyl)-3-(1-(1-(3,5-dichlorophenyl)ethyl)-2-oxo-1,2-dihydroquinoxalin-6-yl)urea] belongs 6.00 to 7.00; to `C[C@@H](c1cccc(CC(F)(F)F)c1)n1c(=O)cnc2cc(NC(=O)NC(C)(C)C)ccc21` [Example 102, (S)-1-(tert-butyl)-3-(2-oxo-1-(1-(3-(2,2,2-trifluoroethyl)phe-nyl)ethyl)-1,2-dihydroquinoxalin-6-yl)urea], 6.00 to 7.00; to `C[C@@H](c1cccc(C(F)(F)F)n1)n1c(=O)cnc2cc(NC(=O)NC(C)(C)C)ccc21` [Example 103, (S)-1-(tert-butyl)-3-(2-oxo-1-(1-(6-(tri-fluoromethyl)pyridin-2-yl)ethyl)-1,2-dihydroquinoxalin-6-yl)urea], 6.00 to 7.00.
Same read-out and setting: with `C[C@@H](c1cc(OC(F)(F)F)ccc1F)n1c(=O)cnc2cc(NC(=O)NC(C)(C)C)ccc21` [Example 104, (S)-1-(tert-butyl)-3-(1-(1-(2-fluoro-5-(trifluoromethoxy)phe-nyl)ethyl)-2-oxo-1,2-dihydroquinoxalin-6-yl)urea] the figure was 6.00 to 7.00; with `C[C@@H](c1ccc(F)c(OC(F)(F)F)c1)n1c(=O)cnc2cc(NC(=O)NC(C)(C)C)ccc21` [Example 105, (S)-1-(tert-buty1)-3-(1-(1-(4-fluoro-3-(trifluoromethoxy)phe-nyl)ethyl)-2-oxo-1,2-dihydroquinoxalin-6-yl)urea], greater than 7.00; with `C[C@@H](c1cccc(OC(F)(F)F)n1)n1c(=O)cnc2cc(NC(=O)NC3(C)CCC3)ccc21` [Example 106, (S)-1-(1-methylcyclobutyl)-3-(2-oxo-1-(1-(6-(trifluoromethoxy)pyri-din-2-yl)ethyl)-1,2-dihydroquinoxalin-6-yl)urea], 6.00 to 7.00.
For the compound `CC(C)CCc1cccc([C@H](C)n2c(=O)cnc3cc(NC(=O)NC(C)(C)C)ccc32)c1` [Example 107, (S)-1-(tert-butyl)-3-(1-(1-(3-isopentylphenyl)ethyl)-2-oxo-1,2-dihydroquinoxalin-6-yl)urea], the pIC50 under setting [1] was 6.00 to 7.00.
Same read-out and setting: with `C[C@@H](c1cccc(CCCC(F)(F)F)c1)n1c(=O)cnc2cc(NC(=O)NC(C)(C)C)ccc21` [Example 108, (S)-1-(tert-butyl)-3-(2-oxo-1-(1-(3-(4,4,4-trifluorobutyl)phenyl)ethyl)-1,2-dihydroquinoxalin-6-yl)urea] the figure was 6.00 to 7.00; with `C[C@@H](c1cccc(OCCC(F)(F)F)c1)n1c(=O)cnc2cc(NC(=O)NC(C)(C)C)ccc21` [Example 109, (S)-1-(tert-butyl)-3-(2-oxo-1-(1-(3-(3,3,3-trifluoropropoxy)phenyl)ethyl)-1,2-dihydroquinoxalin-6-yl)urea], 6.00 to 7.00.
Consider `C[C@@H](c1cccc(CCOC(F)(F)F)c1)n1c(=O)cnc2cc(NC(=O)NC(C)(C)C)ccc21` [Example 110, (S)-1-(tert-butyl)-3-(2-oxo-1-(1-(3-(2-(tri-fluoromethoxy)ethyl)phenyl)ethyl)-1,2-dihydroquinoxalin-6-yl)urea], for which, under setting [1], the negative logarithm of the IC50 (pIC50) was 6.00 to 7.00.
Same read-out and setting: with `C[C@@H](c1cccc(OC2CCCC2)c1)n1c(=O)cnc2cc(NC(=O)NC(C)(C)C)ccc21` [Example 111, (S)-1-(tert-butyl)-3-(1-(1-(3-(cyclo-pentyloxy)phenyl)ethyl)-2-oxo-1,2-dihydroquinoxalin-6-yl)urea] the figure was less than 6.00.
Consider `C[C@@H](c1cccc(-c2ccccc2)c1)n1c(=O)cnc2cc(NC(=O)NC(C)(C)C)ccc21` [Example 112, (S)-1-(1-(1-([1,1′-biphenyl]-3-yl)ethyl)-2-oxo-1,2-dihydroquinoxalin-6-yl)-3-(tert-butyl)urea], for which the pIC50 was 6.00 to 7.00.
For the compound `C[C@@H](c1cccc(C#CC(C)(C)O)c1)n1c(=O)cnc2cc(NC(=O)NC(C)(C)C)ccc21` [Example 113, (S)-1-(tert-butyl)-3-(1-(1-(3-(3-hydroxy-3-methylbut-1-yn-1-yl)phenyl)ethyl)-2-oxo-1,2-dihydroquinoxalin-6-yl)urea], under setting [1], the pIC50 was less than 6.00.
For the compound `C[C@@H](c1cccc(Oc2ccccc2)c1)n1c(=O)cnc2cc(NC(=O)NC(C)(C)C)ccc21` [Example 114, (S)-1-(tert-butyl)-3-(2-oxo-1-(1-(3-phenoxyphenyl)ethyl)-1,2-dihydroquinoxalin-6-yl)urea], the pIC50 under setting [1] is 6.00 to 7.00.
On the same count and under the same terms, to `C[C@@H](c1cccc(OC2CCCCC2)c1)n1c(=O)cnc2cc(NC(=O)NC(C)(C)C)ccc21` [Example 115, (S)-1-(tert-butyl)-3-(1-(1-(3-(cyclohexyloxy)phenyl)ethyl)-2-oxo-1,2-dihydroquinoxalin-6-yl)urea] belongs 6.00 to 7.00; to `C[C@@H](c1cccc(CCC(C)(C)O)c1)n1c(=O)cnc2cc(NC(=O)NC(C)(C)C)ccc21` [Example 116, (S)-1-(tert-butyl)-3-(1-(1-(3-(3-hydroxy-3-methylbutyl)phenyl)ethyl)-2-oxo-1,2-dihydroquinoxalin-6-yl)urea], less than 6.00; to `C[C@@H](c1cccc(OCC2CCOCC2)c1)n1c(=O)cnc2cc(NC(=O)NC(C)(C)C)ccc21` [Example 117, (S)-1-(tert-butyl)-3-(2-oxo-1-(1-(3-((tetrahydro-2H-pyran-4-yl)methoxy)phenyl)eth-yl)-1,2-dihydroquinoxalin-6-yl)urea], less than 6.00.
On to `C[C@@H](c1cccc(CCCC(C)(C)O)c1)n1c(=O)cnc2cc(NC(=O)NC(C)(C)C)ccc21` [Example 118, (S)-1-(tert-butyl)-3-(1-(1-(3-(4-hydroxy-4-methylpentyl)phenyl)ethyl)-2-oxo-1,2-dihydroquinoxalin-6-yl)urea], for which, under setting [1], the negative-log IC50 (pIC50) was less than 6.00.
Same read-out and setting: to `C[C@@H](c1cccc(CCOc2cn[nH]c2)c1)n1c(=O)cnc2cc(NC(=O)NC(C)(C)C)ccc21` [Example 119, (S)-1-(1-(1-(3-(2-((1H-pyrazol-4-yl)oxy)ethyl)phenyl)ethyl)-2-oxo-1,2-dihydroquinoxalin-6-yl)-3-(tert-butyl)urea] belongs less than 6.00.
Still for that read-out and setting: with `C[C@@H](c1cccc(CCN(C)C(=O)C(C)(C)O)c1)n1c(=O)cnc2cc(NC(=O)NC(C)(C)C)ccc21` [Example 120, (S)-N-(3-(1-(6-(3-(tert-butyl)ureido)-2-oxoquinoxalin-1 (2H)-yl)ethyl)phenethyl)-2-hydroxy-N,2-dimethylpropanamide] the figure was less than 6.00.

A word on the pIC50: it is the negative decadic logarithm of the IC50, by convention in mol/L.

Values taken from patent US20260365628A1, “SUBSTITUTED 3,4-DIHYDROQUINOLINONE INHIBITORS OF TSHR” (Septerna, Inc., priority 2022, published 2026).
